Peptide text beside a SMILES is read from it. * marks the point of attachment. Dansyl = CN(C)c1cccc2c(S(=O)(=O)*)cccc12
What was measured:
[1] = test system: P100 membrane fractions derived from Caco-2 cells; experiment: Dansylated peptide ELISA: relative binding of PAX2 and HAX42 peptides to P100 (ratio to ZElan021); settings: ratio to ZElan021 = 1.00
Procedure: The peptides and proteins were analyzed by a dansylated peptide ELISA method in which 96 well plates were coated overnight at 4° C. with 100 μl/well coating protein (normally 100 μg/ml P100 membrane fraction) in 0.05M carbonate buffer pH9.6. Nonspecific binding was blocked using 200 μl/well, 2% Marvel/PBS for 2 hours at 37° C. prior to incubation with dansylated peptides. The plates were washed three times with PBS/0.05% Tween 20 and after each subsequent incubation step. […] A buffer blank control was included to ensure that background binding to plastic was not due to the antibodies used in the assay system. […] The plates were then incubated with an anti-mouse X-HRP conjugated antibody (Southern Biotech 1060-05) at a 1:10,000 dilution in blocking solution, 100 μl/well for 1 hour at room temperature. Plates were developed using 75 μl/well Bionostics TMB substrate and incubated for approximately 10 minutes. The developing reaction was stopped using Bionostics Red Stop solution (25 μl/well), and the optical density of the plates was read at 650nm.

fixed Caco-2 cells = experiment: Inhibition of GST-peptide fusion binding to fixed Caco-2 cells by synthetic peptides; settings: peptide from 100 μg/ml serially diluted; GST fusion 10 μg
Text: Caco-2 cells were fixed, treated with phenylhydrazine and blocked as described above. […] GST-PAX2 binding was inhibited by ZElan032, ZElan033, and ZElan035.

[2] = PAX2 peptides, first 20 μg/ml column
[3] = PAX2 peptides, first 50 μg/ml column
[4] = PAX2 peptides, second 20 μg/ml column
[5] = PAX2 peptides, second 50 μg/ml column
[6] = HAX42 peptides, first 50 μg/ml column
[7] = HAX42 peptides, second 50 μg/ml column

## CC(C)C[C@H](NC(=O)[C@H](CCCNC(=N)N)NC(=O)[C@H](CCCNC(=N)N)NC(=O)[C@H](CC(N)=O)NC(=O)[C@H](Cc1c[nH]cn1)NC(=O)[C@H](CO)NC(=O)[C@H](CO)NC(=O)[C@H](Cc1c[nH]cn1)NC(=O)[C@H](CCCCN)NC(=O)[C@H](C)NC(=O)[C@H](CC(N)=O)NC(=O)[C@@H](NC(=O)[C@@H](N)CCCCNS(=O)(=O)c1cccc2c(N(C)C)cccc12)[C@@H](C)O)C(=O)N[C@@H](CCCNC(=N)N)C(=O)N[C@H](C(=O)N[C@@H](CCCNC(=N)N)C(N)=O)[C@@H](C)O [ZElan033] (H-K(Dansyl)TNAKHSSHNRRLRTR-NH2)
[1]; [2]
  Binding value at 20 μg/ml: 0.35
[1]; [3]
  Binding value at 50 μg/ml: 0.80
[1]; [4]
  Binding value at 20 μg/ml: 1.57
[1]; [5]
  Binding value at 50 μg/ml: 0.66
Fixed Caco-2 cells
  inhibition of GST-PAX2 binding: inhibited

## CC(C)C[C@H](NC(=O)[C@H](CCCNC(=N)N)NC(=O)[C@H](CCCNC(=N)N)NC(=O)[C@H](CC(N)=O)NC(=O)[C@H](Cc1c[nH]cn1)NC(=O)[C@H](CO)NC(=O)[C@H](CO)NC(=O)[C@H](Cc1c[nH]cn1)NC(=O)[C@H](CCCCN)NC(=O)[C@H](C)NC(=O)[C@H](CC(N)=O)NC(=O)[C@@H](NC(=O)[C@@H](N)CCCCNS(=O)(=O)c1cccc2c(N(C)C)cccc12)[C@@H](C)O)C(=O)N[C@@H](CCCNC(=N)N)C(=O)N[C@H](C(=O)N[C@@H](CCCNC(=N)N)C(=O)N[C@@H](CO)C(=O)N[C@@H](CCCNC(=N)N)C(=O)N1CCC[C@H]1C(=O)N[C@@H](CC(N)=O)C(N)=O)[C@@H](C)O [ZElan032] (H-K(Dansyl)TNAKHSSHNRRLRTRSRPN-NH2)
[1]; [2]
  Binding value at 20 μg/ml: 1.43
[1]; [3]
  Binding value at 50 μg/ml: 0.95
[1]; [4]
  Binding value at 20 μg/ml: 2.87
[1]; [5]
  Binding value at 50 μg/ml: 1.06
Fixed Caco-2 cells
  inhibition of GST-PAX2 binding: inhibited

## H-K(Dansyl)SRANTDGRKSRYSSPRRNSSTEPRLSPNSVHARYPSTDHD-NH2 [ZElan038, reference compound]
Fixed Caco-2 cells
  inhibition of GST-HAX42 binding: inhibited

## H-K(Dansyl)SEANLDGRKSRYSSPRRNSSTRPRTSPNSVHARYPSTDHD-NH2 [ZElan026, reference compound]
Fixed Caco-2 cells
  inhibition of GST-HAX42 binding: inhibited

## H-K(Dansyl)SARDSGPAEDGSRAVRLNGVENANTRKSSRSNPRGRRHPGG-NH2 [ZElan024]
Fixed Caco-2 cells
  inhibition of GST-P31 binding: inhibited

## CC(C)C[C@H](NC(=O)[C@H](C)NC(=O)[C@H](Cc1c[nH]cn1)NC(=O)[C@H](CC(=O)O)NC(=O)[C@H](CO)NC(=O)[C@@H](N)CCCCNS(=O)(=O)c1cccc2c(N(C)C)cccc12)C(=O)NCC(=O)N[C@H](C(=O)N[C@@H](CC(N)=O)C(=O)N[C@@H](CC(C)C)C(=O)N[C@@H](CCCNC(=N)N)C(=O)N[C@@H](CO)C(=O)N[C@@H](CC(=O)O)C(=O)N[C@@H](CC(N)=O)C(=O)N[C@@H](C)C(=O)N[C@@H](CCCCN)C(=O)N[C@@H](CCC(=O)O)C(=O)N1CCC[C@H]1C(=O)NCC(N)=O)[C@@H](C)O [ZElan062] (H-K(Dansyl)SDHALGTNLRSDNAKEPG-NH2)
[1]; HAX42 peptides
  Binding value at 20 μg/ml: 0.11
[1]; [6]
  Binding value at 50 μg/ml: 0.42
[1]; [7]
  Binding value at 50 μg/ml: 0.34

## C[C@@H](O)[C@H](NC(=O)[C@H](CO)NC(=O)[C@H](CC(N)=O)NC(=O)CNC(=O)[C@H](CC(N)=O)NC(=O)CNC(=O)[C@H](CS)NC(=O)[C@H](CS)NC(=O)[C@H](CC(N)=O)NC(=O)[C@H](Cc1ccc(O)cc1)NC(=O)[C@H](CC(=O)O)NC(=O)CNC(=O)[C@@H]1CCCN1C(=O)[C@H](CCC(=O)O)NC(=O)[C@@H](N)CCCCNS(=O)(=O)c1cccc2c(N(C)C)cccc12)C(=O)NCC(=O)O [ZElan090] (H-K(Dansyl)EPGDYNCCGNGNSTG-OH; C-terminus assumed)
[1]; HAX42 peptides, first 25 μg/ml column
  Binding value at 25 μg/ml: 2.06
[1]; HAX42 peptides, second 25 μg/ml column
  Binding value at 25 μg/ml: 1.54
[1]; HAX42 peptides, third 25 μg/ml column
  Binding value at 25 μg/ml: 2.16

## C[C@H](NC(=O)[C@H](CC(N)=O)NC(=O)[C@H](CCC(=O)O)NC(=O)[C@@H](N)CCCCNS(=O)(=O)c1cccc2c(N(C)C)cccc12)C(=O)N[C@@H](CC(N)=O)C(=O)N[C@H](C(=O)N[C@@H](CCCNC(=N)N)C(=O)N[C@@H](CCCCN)C(=O)N[C@@H](CO)C(=O)N[C@@H](CO)C(=O)N[C@@H](CCCNC(=N)N)C(=O)N[C@@H](CO)C(=O)N[C@@H](CC(N)=O)C(=O)N1CCC[C@H]1C(=O)N[C@@H](CCCNC(=N)N)C(=O)NCC(=O)N[C@@H](CCCNC(=N)N)C(=O)N[C@@H](CCCNC(=N)N)C(=O)N[C@@H](Cc1c[nH]cn1)C(=O)N1CCC[C@H]1C(=O)NCC(N)=O)[C@@H](C)O [ZElan028] (H-K(Dansyl)ENANTRKSSRSNPRGRRHPG-NH2)
Fixed Caco-2 cells
  inhibition of GST-P31 binding: inhibited

## CC(C)[C@H](NC(=O)[C@H](CCCCN)NC(=O)[C@H](CCCNC(=N)N)NC(=O)[C@@H](N)CCCCNS(=O)(=O)c1cccc2c(N(C)C)cccc12)C(=O)N[C@@H](Cc1ccccc1)C(=O)N[C@@H](CC(N)=O)C(=O)N[C@@H](CCCNC(=N)N)C(=O)N[C@@H](CCCNC(=N)N)C(=O)N[C@@H](CCCNC(=N)N)C(=O)N1CCC[C@H]1C(=O)N[C@@H](CO)C(N)=O [ZElan065] (H-K(Dansyl)RKVFNRRRPS-NH2)
[1]; HAX42 peptides
  Binding value at 20 μg/ml: 0.00
[1]; [6]
  Binding value at 50 μg/ml: 0.54
[1]; [7]
  Binding value at 50 μg/ml: 0.30

## C[C@H](NC(=O)[C@H](CCCNC(=N)N)NC(=O)[C@H](CCCNC(=N)N)NC(=O)[C@H](CC(N)=O)NC(=O)[C@H](Cc1c[nH]cn1)NC(=O)[C@H](CO)NC(=O)[C@H](CO)NC(=O)[C@@H](N)CCCCNS(=O)(=O)c1cccc2c(N(C)C)cccc12)C(=O)N[C@@H](CCCNC(=N)N)C(=O)N[C@H](C(=O)N[C@@H](CCCNC(=N)N)C(N)=O)[C@@H](C)O [ZElan079] (H-K(Dansyl)SSHNRRARTR-NH2)
[1]; PAX2 peptides
  Binding value at 50 μg/ml (Jackson Ab): 0.83
  Binding value at 50 μg/ml (Southern Ab): 0.53
[1]; [2]
  Binding value at 20 μg/ml: 0.31
[1]; [3]
  Binding value at 50 μg/ml: 0.97
[1]; [5]
  Binding value at 50 μg/ml: 0.68

## CC(C)C[C@H](NC(=O)[C@H](CCCNC(=N)N)NC(=O)[C@H](CCCNC(=N)N)NC(=O)[C@H](CC(N)=O)NC(=O)[C@H](Cc1c[nH]cn1)NC(=O)[C@H](CO)NC(=O)[C@H](CO)NC(=O)[C@@H](N)CCCCNS(=O)(=O)c1cccc2c(N(C)C)cccc12)C(=O)N[C@@H](C)C(=O)N[C@H](C(=O)N[C@@H](CCCNC(=N)N)C(N)=O)[C@@H](C)O [ZElan080] (H-K(Dansyl)SSHNRRLATR-NH2)
[1]; PAX2 peptides
  Binding value at 50 μg/ml (Jackson Ab): 0.67
  Binding value at 50 μg/ml (Southern Ab): 0.38
[1]; [2]
  Binding value at 20 μg/ml: 0.23
[1]; [3]
  Binding value at 50 μg/ml: 0.84
[1]; [5]
  Binding value at 50 μg/ml: 0.45

## H-K(Dansyl)GRNHDVVSSNTHKSYRSPRSASYPRLSNDRTDRTEPAPSS-NH2 [ZElan083, reference compound]
[1]; [2]
  Binding value at 20 μg/ml: 0.43
[1]; [3]
  Binding value at 50 μg/ml: 1.03
[1]; [4]
  Binding value at 20 μg/ml: 0.63
[1]; [5]
  Binding value at 50 μg/ml: 0.88

## CC(C)C[C@H](NC(=O)[C@H](C)NC(=O)[C@H](Cc1c[nH]cn1)NC(=O)[C@H](CC(=O)O)NC(=O)[C@H](CO)NC(=O)[C@@H](N)CCCCNS(=O)(=O)c1cccc2c(N(C)C)cccc12)C(=O)NCC(=O)N[C@H](C(=O)N[C@@H](CC(N)=O)C(=O)N[C@@H](CC(C)C)C(=O)N[C@@H](CCCNC(=N)N)C(=O)N[C@@H](CO)C(=O)N[C@@H](CC(=O)O)C(=O)N[C@@H](CC(N)=O)C(=O)N[C@@H](C)C(=O)N[C@@H](CCCCN)C(=O)N[C@@H](CCC(=O)O)C(=O)N1CCC[C@H]1C(=O)NCC(=O)N[C@@H](CC(=O)O)C(=O)N[C@@H](Cc1ccc(O)cc1)C(=O)N[C@@H](CC(N)=O)C(=O)N[C@@H](CS)C(=O)N[C@@H](CS)C(=O)NCC(=O)N[C@@H](CC(N)=O)C(=O)NCC(N)=O)[C@@H](C)O [ZElan060] (H-K(Dansyl)SDHALGTNLRSDNAKEPGDYNCCGNG-NH2)
[1]; HAX42 peptides
  Binding value at 20 μg/ml: 0.44
[1]; [6]
  Binding value at 50 μg/ml: 0.56
[1]; [7]
  Binding value at 50 μg/ml: 0.43

## CC(C)C[C@H](NC(=O)[C@H](CCCNC(=N)N)NC(=O)[C@H](CCCNC(=N)N)NC(=O)[C@H](CC(N)=O)NC(=O)[C@H](Cc1c[nH]cn1)NC(=O)[C@H](CO)NC(=O)[C@H](C)NC(=O)[C@@H](N)CCCCNS(=O)(=O)c1cccc2c(N(C)C)cccc12)C(=O)N[C@@H](CCCNC(=N)N)C(=O)N[C@H](C(=O)N[C@@H](CCCNC(=N)N)C(N)=O)[C@@H](C)O [ZElan073] (H-K(Dansyl)ASHNRRLRTR-NH2)
[1]; PAX2 peptides
  Binding value at 50 μg/ml (Jackson Ab): 0.66
  Binding value at 50 μg/ml (Southern Ab): 0.49
[1]; [2]
  Binding value at 20 μg/ml: 0.07
[1]; [3]
  Binding value at 50 μg/ml: −0.11
[1]; [5]
  Binding value at 50 μg/ml: 0.49

Reference: patent US6703362B1, “Random peptides that bind to gastro-intestinal tract (GIT) transport receptors and related methods” (Cytogen Corporation, priority 1997, dated 2004)
